Reference: US20240425479A1, “HALO-SUBSTITUTED AMINO AZA-HETEROARYL COMPOUNDS AS INHIBITORS OF THE HAEMATOPOIETIC PROGENITOR KINASE 1 (HPK1)” (priority 2021, published 2024)

Biological target: T1, Recombinant (1-346) HPK1 (h) (Homo sapiens, UniProt Q92918)
T1 construct: Recombinant (1-346) HPK1 (h) is incubated with 8 mM MOPS pH 7.0
T1 sequence (Q92918 1-346): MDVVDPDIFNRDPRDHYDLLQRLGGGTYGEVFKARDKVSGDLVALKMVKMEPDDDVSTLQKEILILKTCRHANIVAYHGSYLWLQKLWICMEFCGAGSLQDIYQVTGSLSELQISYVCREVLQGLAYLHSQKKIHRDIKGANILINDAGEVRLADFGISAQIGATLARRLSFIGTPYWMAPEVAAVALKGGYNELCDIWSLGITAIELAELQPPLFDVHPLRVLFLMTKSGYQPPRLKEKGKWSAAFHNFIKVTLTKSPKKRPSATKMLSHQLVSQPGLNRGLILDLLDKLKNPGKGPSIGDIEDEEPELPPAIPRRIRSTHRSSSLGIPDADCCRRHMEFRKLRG
Assay: HPK1 human STE kinase enzymatic radiometric assay
Format: biochemical
Details: read-out: HPK1 IC50 nM Range
Procedure, shortened: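 Compounds in 3-fold, 9-point serial dilution; kinase (residues 1-346) phosphorylates myelin basic protein (0.33 mg/mL) using [gamma-33P]-ATP at pH 7.0 (MOPS, EDTA, Mg acetate) for 40 min, room temperature. Acid-quenched mixture filtered onto P30 mats; incorporated radioactivity read by scintillation counting.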

Compound | IC50 [nM]
CN(C)Cc1c(N2CCOCC2)ccc(-c2nc(-c3ccc4c(c3)CCNC4=O)c(N)nc2F)c1F [Example I-240] | 11 to 100
CN(C)Cc1c(N2CCOCC2)ccc(-c2nc(-c3cc4c(cc3F)C(=O)NCC4)c(N)nc2F)c1F [Example I-241, 6-(3-amino-6-(3-((dimethylamino)methyl)-2-fluoro-4-morpholinophenyl)-5-fluoropyrazin-2-yl)-7-fluoro-3,4-dihydroisoquinolin-1(2H)-one] | 11 to 100
CN(C)Cc1c(N2CCOCC2)ccc(-c2nc(-c3cc(F)c4c(c3)CCNC4=O)c(N)nc2F)c1F [Example I-242, 6-(3-amino-6-(3-((dimethylamino)methyl)-2-fluoro-4-morpholinophenyl)-5-fluoropyrazin-2-yl)-8-fluoro-3,4-dihydroisoquinolin-1(2H)-one] | 11 to 100
Nc1nc(F)c(-c2ccc(N3CCOCC3)c(CN3CCC3)c2F)nc1-c1ccc2c(c1)CCNC2=O [Example I-243, 6-(3-amino-6-(3-(azetidin-1-ylmethyl)-2-fluoro-4-morpholinophenyl)-5-fluoropyrazin-2-yl)-3,4-dihydroisoquinolin-1(2H)-one] | 11 to 100
Nc1nc(F)c(-c2ccc(N3CCOCC3)c(CN3CCC3)c2F)nc1-c1cc2c(cc1F)C(=O)NCC2 [Example I-244, 6-(3-amino-6-(3-(azetidin-1-ylmethyl)-2-fluoro-4-morpholinophenyl)-5-fluoropyrazin-2-yl)-7-fluoro-3,4-dihydroisoquinolin-1(2H)-one] | 11 to 100
Nc1nc(F)c(-c2ccc(N3CCOCC3)c(CN3CCC3)c2F)nc1-c1cc(F)c2c(c1)CCNC2=O [Example I-245, 6-(3-amino-6-(3-(azetidin-1-ylmethyl)-2-fluoro-4-morpholinophenyl)-5-fluoropyrazin-2-yl)-8-fluoro-3,4-dihydroisoquinolin-1(2H)-one] | 11 to 100
CCN(C)Cc1c(N2CCOCC2)ccc(-c2nc(-c3cc4c(cc3F)C(=O)NCC4)c(N)nc2F)c1F [Example I-246, 6-(3-amino-6-(3-((ethyl(methyl)amino)methyl)-2-fluoro-4-morpholinophenyl)-5-fluoropyrazin-2-yl)-7-fluoro-3,4-dihydroisoquinolin-1(2H)-one] | 11 to 100
CCN(C)Cc1c(N2CCOCC2)ccc(-c2nc(-c3cc(F)c4c(c3)CCNC4=O)c(N)nc2F)c1F [Example I-247, 6-(3-amino-6-(3-((ethyl(methyl)amino)methyl)-2-fluoro-4-morpholinophenyl)-5-fluoropyrazin-2-yl)-8-fluoro-3,4-dihydroisoquinolin-1(2H)-one] | 11 to 100
CCN(C)Cc1c(N2CCOCC2)ccc(-c2nc(-c3ccc4c(c3)CCNC4=O)c(N)nc2F)c1F [Example I-248, 6-(3-amino-6-(3-((ethyl(methyl)amino)methyl)-2-fluoro-4-morpholinophenyl)-5-fluoropyrazin-2-yl)-3,4-dihydroisoquinolin-1(2H)-one] | 11 to 100
COc1ccc(-c2nc(-c3ccc4c(c3)CCNC4=O)c(N)nc2F)cc1CN(C)C [Example I-250, 6-(3-amino-6-(3-((dimethylamino)methyl)-4-methoxyphenyl)-5-fluoropyrazin-2-yl)-3,4-dihydroisoquinolin-1(2H)-one] | 11 to 100
CN(C)[C@@H]1COc2ccc(-c3nc(-c4cc(F)c5c(c4)CCNC5=O)c(N)nc3F)cc21 [Example I-254, (S)-6-(3-amino-6-(3-(dimethylamino)-2,3-dihydrobenzofuran-5-yl)-5-fluoropyrazin-2-yl)-8-fluoro-3,4-dihydroisoquinolin-1(2H)-one] | 11 to 100
CN(C)[C@@H]1COc2ccc(-c3nc(-c4cc5c(cc4F)C(=O)NCC5)c(N)nc3F)cc21 [Example I-255, (S)-6-(3-amino-6-(3-(dimethylamino)-2,3-dihydrobenzofuran-5-yl)-5-fluoropyrazin-2-yl)-7-fluoro-3,4-dihydroisoquinolin-1(2H)-one] | 11 to 100
CN(C)Cc1cc(-c2nc(-c3ccc4c(c3)CCNC4=O)c(N)nc2F)c(F)cc1N1CCOCC1 [Example I-258, 6-(3-amino-6-(5-((dimethylamino)methyl)-2-fluoro-4-morpholinophenyl)-5-fluoropyrazin-2-yl)-3,4-dihydroisoquinolin-1(2H)-one] | 101 to 1000
CN(C)Cc1cc(-c2nc(-c3ccc4c(=O)[nH]cc(F)c4c3)c(N)nc2F)c(F)cc1N1CCOCC1 [Example I-259, 6-(3-amino-6-(5-((dimethylamino)methyl)-2-fluoro-4-morpholinophenyl)-5-fluoropyrazin-2-yl)-4-fluoroisoquinolin-1(2H)-one] | 11 to 100
CC(C)N1CCN(c2ccc(-c3nc(-c4ccc5c(c4)C4(CC4)NCC5=O)c(N)nc3F)cc2)CC1 [Example I-260, 7′-(3-amino-5-fluoro-6-(4-(4-isopropylpiperazin-1-yl)phenyl)pyrazin-2-yl)-2′,3′-dihydro-4′H-spiro[cyclopropane-1,1′-isoquinolin]-4′-one] | 101 to 1000
Cc1c[nH]c(=O)c2ccc(-c3nc(-c4cc(CN(C)C)c(N5CCOCC5)cc4F)c(F)nc3N)cc12 [Example I-261, 6-(3-amino-6-(5-((dimethylamino)methyl)-2-fluoro-4-morpholinophenyl)-5-fluoropyrazin-2-yl)-4-methylisoquinolin-1(2H)-one] | 101 to 1000
CN(C)Cc1cc(-c2nc(-c3ccc4c(c3)CCNC4=O)c(N)nc2F)c(F)c(F)c1N1CCOCC1 [Example I-262, 6-(3-amino-6-(5-((dimethylamino)methyl)-2,3-difluoro-4-morpholinophenyl)-5-fluoropyrazin-2-yl)-3,4-dihydroisoquinolin-1(2H)-one] | 101 to 1000

Further lines, results first:

IC50 [nM] | Compound
0.1 to 10 | C[C@H]1CCCN1Cc1cc(-c2nc(-c3ccc4c(c3)C(F)(F)CNC4=O)c(N)nc2F)ccc1C1CCOCC1 [Example I-233, (S)-6-(3-amino-5-fluoro-6-(3-((2-methylpyrrolidin-1-yl)methyl)-4-(tetrahydro-2H-pyran-4-yl)phenyl)pyrazin-2-yl)-4,4-difluoro-3,4-dihydroisoquinolin-1(2H)-one]
0.1 to 10 | Cc1c[nH]c(=O)c2cc(F)c(-c3nc(-c4ccc(N5CCN(C(C)C)CC5)cc4)c(F)nc3N)cc12 [Example I-234, 6-(3-amino-5-fluoro-6-(4-(4-isopropylpiperazin-1-yl)phenyl)pyrazin-2-yl)-7-fluoro-4-methylisoquinolin-1(2H)-one]
0.1 to 10 | Cc1c[nH]c(=O)c2cc(F)c(-c3nc(-c4ccc(C5CCOCC5)c(CN(C)C)c4)c(F)nc3N)cc12 [Example I-235, 6-(3-amino-6-(3-((dimethylamino)methyl)-4-(tetrahydro-2H-pyran-4-yl)phenyl)-5-fluoropyrazin-2-yl)-7-fluoro-4-methylisoquinolin-1(2H)-one]
11 to 100 | Cc1c[nH]c(=O)c2ccc(-c3nc(-c4cnc(N5CCOCC5)c(CN(C)C)c4)c(F)nc3N)cc12 [Example I-236, 6-(3-amino-6-(5-((dimethylamino)methyl)-6-morpholinopyridin-3-yl)-5-fluoropyrazin-2-yl)-4-methylisoquinolin-1(2H)-one]
11 to 100 | CN(C)Cc1cc(-c2nc(-c3ccc4c(c3)CCNC4=O)c(N)nc2F)cnc1N1CCOCC1 [Example I-237, 6-(3-amino-6-(5-((dimethylamino)methyl)-6-morpholinopyridin-3-yl)-5-fluoropyrazin-2-yl)-3,4-dihydroisoquinolin-1(2H)-one]
0.1 to 10 | CCN(C)Cc1cc(-c2nc(-c3ccc4c(=O)[nH]cc(C)c4c3)c(N)nc2F)ccc1C1CCOCC1 [Example I-239, 6-(3-amino-6-(3-((ethyl(methyl)amino)methyl)-4-(tetrahydro-2H-pyran-4-yl)phenyl)-5-fluoropyrazin-2-yl)-4-methylisoquinolin-1(2H)-one]
0.1 to 10 | COc1ccc(-c2nc(-c3cc4c(cc3F)C(=O)NCC4)c(N)nc2F)cc1CN(C)C [Example I-249, 6-(3-amino-6-(3-((dimethylamino)methyl)-4-methoxyphenyl)-5-fluoropyrazin-2-yl)-7-fluoro-3,4-dihydroisoquinolin-1(2H)-one]
0.1 to 10 | CN(C)[C@@H]1COc2ccc(-c3nc(-c4ccc5c(=O)[nH]cc(F)c5c4)c(N)nc3F)cc21 [Example I-251, (S)-6-(3-amino-6-(3-(dimethylamino)-2,3-dihydrobenzofuran-5-yl)-5-fluoropyrazin-2-yl)-4-fluoroisoquinolin-1(2H)-one]
0.1 to 10 | CN(C)[C@@H]1COc2ccc(-c3nc(-c4ccc5c(=O)[nH]cc(Cl)c5c4)c(N)nc3F)cc21 [Example I-252, (S)-6-(3-amino-6-(3-(dimethylamino)-2,3-dihydrobenzofuran-5-yl)-5-fluoropyrazin-2-yl)-4-chloroisoquinolin-1(2H)-one]
0.1 to 10 | CN(C)[C@@H]1COc2ccc(-c3nc(-c4cc(F)c5c(=O)[nH]cc(F)c5c4)c(N)nc3F)cc21 [Example I-253, (S)-6-(3-amino-6-(3-(dimethylamino)-2,3-dihydrobenzofuran-5-yl)-5-fluoropyrazin-2-yl)-4,8-difluoroisoquinolin-1(2H)-one]
0.1 to 10 | CN(C)[C@@H]1COc2ccc(-c3nc(-c4ccc5c(c4)C(F)(F)CNC5=O)c(N)nc3F)cc21 [Example I-256, (S)-6-(3-amino-6-(3-(dimethylamino)-2,3-dihydrobenzofuran-5-yl)-5-fluoropyrazin-2-yl)-4,4-difluoro-3,4-dihydroisoquinolin-1(2H)-one]
